Patent publication US20240059740A1, “CYCLIC PEPTIDES AND USES THEREOF” (PRE[…] INC., priority 2020, published 2024)
Residues, ends and D or L forms follow the SMILES beside them.

Experiments:
Format in all cases: cell-based, human
MMP-9 mRNA = test: Real time RT-PCR, MMP-9 mRNA expression
Excerpt: (§1) The real-time reverse transcription polymerase chain reaction (RT-PCR) uses fluorescent reporter molecules to monitor the production of amplification products during each cycle of the PCR reaction. This combines the nucleic acid amplification and detection steps into one homogeneous assay and use of appropriate chemistries and data analysis eliminates the need for Southern blotting or DNA sequencing for amplicon identification. Its simplicity, specificity and sensitivity, together with its potential for high throughput and the ongoing introduction of new chemistries, more reliable instrumentation and improved protocols, has made real-time RT-PCR the benchmark technology for the detection and/or comparison of RNA levels.’
(§2) In order to detect and quantify the expression of specific genes at mRNA level, real-time reverse transcriptase polymerase chain reaction (Real time RT-PCR) was performed. Total RNA of samples was isolated and purified using the PureLink® RNA Mini Kit (Life technologies). The concentration of total RNA was detected by NanoDrop 2000 Spectrophotometer (Thermo Scientific). The total RNA (2000 ng) was reverse transcribed using the High-Capacity cDNA Reverse Transcription Kit (Applied Biosystems™).
(§3) The primers of target genes were TaqMan™ Gene Expression Assay for human PLAU (Hs01547054_m1), MMP-2 (Hs01548727_m1), MMP-9 (Hs00957562_m1), Snail-1 (Hs00195591_m1), Snail-2 (Hs00161904_m1), N-cadherin (Hs00983056_m1) and Twist (Hs01675818_s1). Relative quantification was done by reference to 18S ribosomal RNA (18S rRNA) and analysed using the comparative critical threshold (Ct) method
(§4) The mRNA expression of MMPs was measured using qRT-PCR. This was tested three independent times; the results are shown in Tables 9, 10 and 11 for U251, U87 cells and O81024 cells respectively. Results are reported as percent of the control cells (no treatment). Both MMP-2 and uPA were decreased in U251 by SEQ ID NO.1.

Snail-1 mRNA = test: Real time RT-PCR, Snail-1 mRNA expression
Excerpt: as §1, §2, §3, §4
Epithelial-mesenchymal transition (EMT) is the process by which epithelial cells acquire a migratory (metastatic) phenotype and so EMT is associated with cancer metastasis, cancer cell stemness, chemoresistance and immune resistance. Therefore, the determination of the mRNA expression of EMT markers is a valuable tool to evaluate invasion potential of cancer cells.
The ‘Snail’ superfamily is involved in cell differentiation and survival, two processes central in cancer research. Snail-1 has a pivotal role in the regulation of epithelial-mesenchymal transition (EMT) and Snail-1 expression is associated with poor prognosis in metastatic cancer, and tumours with elevated Snail-1 expression are harder to treat. The significance of Snail-1 as a prognostic indicator, its involvement in the regulation of EMT and metastasis, and its roles in both drug and immune resistance point out that Snail-1 is an attractive target for tumour growth inhibition and a target for sensitization to cytotoxic drugs (Kaufhold et al., 2014). Twist is transcriptionally active during cell differentiation and lineage determination. During the establishment of cancer metastases by EMT, Twist acts independently of Snail to suppress E-cadherin and to upregulate N-cadherin (CDH-2) and fibronectin. Snail-2 (Slug) is another member of the SNAIL family of transcriptional activators and serves an important role in suppressing the epithelial phenotype in numerous cancer cells (Iwadate, 2016).

U87 cells = test: BME cell invasion assay, U87; conditions: 24 h
Experimental: To assess whether the ability of SEQ ID NO.1 to inhibit MMP-2 activity and, to a lesser extent, reduce the production of matrix proteinases and downregulate the expression of EMT markers, was of functional consequence in reducing the invasiveness of the GBM cells, the ability of the peptide was tested at the concentrations of 1, 10 and 100 μM (none of which are toxic to cells) to inhibit invasion of the GBM cells through a basement membrane. This assay, described in more detail below, is an in vitro surrogate for measurement of the in vivo invasion by tumour cells of their environment.
The cell invasion assay employs a simplified Boyden chamber-like design that consists of two chambers separated by a filter (an 8 μm polycarbonate (PC) membrane) coated with basement membrane or different extracellular matrix components. The cell suspension is placed in the top chamber and incubated in the presence of test media containing specific chemo-attractants in the bottom chamber. Cells migrate from the top chamber to the bottom of the filter by degrading the coating over the filter pores. Detection of cell invasion is quantified using Calcein AM. Cell dissociation/Calcein AM solution is placed in the bottom chamber to dissociate the migrating cells from the filter. Calcein AM is internalized by the cells, and intracellular-esterases cleave the aceto-methylester (AM) moiety. Free Calcein fluoresces brightly and is used to quantitate the number of cells that have invaded or migrated by comparison with a standard curve (In Vitro Technologies Pty Ltd, (https://lifescience.invitro.com.au/brands/r-and-d-systems/).
The filter was coated with PathClear® growth factor reduced BME. The selected peptides were applied to the cells in both upper and lower wells to make sure the concentration of peptides were the same and the chemoattractant was serum at a concentration of 2% (for adherent U87 & U251 cells) or growth factor mix required in the medium (for non- adherent, 081024 oncospheres).
Cell invasion was determined using CultureCoat® 96 Well Medium BME Cell Invasion assay. Briefly, the cells were pre-starved 24 h before harvest. Then seeding 25,000 per well of cell in the upper chamber with serum free medium together different concentration of peptide. The bottom chamber also added different concentration of peptides with 2% (V/V) serum for GBM adherent cells or growth factor mix for neurosphere cells as chemoattractant. After 24 h incubation, the invading cells were measured by Calcein AM and calculated based on standard curve.
The results are shown in Table 12, the results are expressed as % inhibition.

[1] = U87 cells, baseline expression level = 1

CC(C)C[C@@H]1NC(=O)[C@H](C)NC(=O)[C@@H](NC(=O)[C@@H]2CCCN2C(=O)[C@@H](N)CC(C)C)CSSC(C)(C)CNC(=O)CC[C@@H](C(=O)N[C@@H](CCCNC(=N)N)C(N)=O)NC(=O)[C@H](CC(=O)O)NC(=O)[C@H](CC(N)=O)NC1=O [SEQ ID NO: 1, Leu-Pro-c(SSA*-Ala-Leu-Asn-Asp-Glu)-Arg-NH2] (HELM PEPTIDE1{L.P.C.A.L.N.D.E.R.[am]}|CHEM1{[CC(C)(CN[*:2])S[*:1]]}$PEPTIDE1,CHEM1,3:R3-1:R1|PEPTIDE1,CHEM1,8:R3-1:R2$$$V2.0; N-terminus assumed)
mRNA expression, MMP-9 (MMP-9 mRNA; 081024 cells, baseline expression level = 1): 0.63
mRNA expression, MMP-9 (MMP-9 mRNA; [1]): 0.66
mRNA expression, MMP-9 (MMP-9 mRNA; U251 cells, relative to control (no treatment)): 0.73
mRNA expression, Snail-1 (Snail-1 mRNA; 081024 cells, baseline expression level = 1, listed as SEQ ID NO. 1): 0.60
mRNA expression, Snail-1 (Snail-1 mRNA; 081024 cells, baseline expression level = 1, listed as SEQ ID NO.1): halved
mRNA expression, Snail-1 (Snail-1 mRNA; [1]): 0.84
mRNA expression, Snail-1 (Snail-1 mRNA; U251 cells, relative to control (no treatment), listed as SEQ ID NO. 1): 0.42
mRNA expression, Snail-1 (Snail-1 mRNA; U251 cells, relative to control (no treatment), listed as SEQ ID NO.1): decreased
Invasion Inhibition Index (%) (U87 cells; 1 μM, listed as SEQ ID NO. 1): 7.6%
Invasion Inhibition Index (%) (U87 cells; 1 μM, listed as SEQ ID NO.1): lower inhibition index compared to Chlorotoxin
Invasion Inhibition Index (%) (U87 cells; 10 μM): 15.5%
Invasion Inhibition Index (%) (U87 cells; 100 μM): 24.3%
